pIC50: −log10 of the molar value. Read-outs that look alike come from different tables or passages of the source.
Legend:
[1] = target: FLAP (human ALOX5AP expressed in COS-7 cell membranes) (Homo sapiens (Human), UniProt P20292); assay: FLAP Binding Assay (Test A), competition binding with 3H-MK591 as tracer; details: competition with 3H-MK591 (2 nM), membranes from COS-7 cells expressing human ALOX5AP, 60 min at rt
Experimental: FLAP Binding Assay (Test A) Compounds were tested in a competition binding assay using ^3H-MK591 as tracer. […] Med. Chem. […] A 100,000×g pellet from COS-7 cells stably transfected with a plasmid expressing human ALOX5AP was the source of FLAP. […] Following filtration, filter plates were dried 12 h at RT (or 50° C. for 1 hour). 50 μL scintillant was then added, the filterplates were sealed and radioactivity was measured in a microbeta counter. Specific binding was defined as total binding minus non-specific binding. Total binding was defined as ^3H-MK591 bound to membranes in the absence of competitor, non-specific binding was defined as ^3H-MK591 in the presence of 0.1 mM MK-591. IC50 values were determined by plotting % inhibition versus log compound concentration and using a one site dose response model.

[2] = tested on: LTB4 production in fresh human whole blood; assay: FLAP Whole Blood Assay (Test B), inhibition of LTB4 production; type: cell-based; details: then calcium ionophore A23187, LTB4 by EIA
Experimental: FLAP Whole Blood Assay (Test B)
Compounds were tested for the inhibition of LTB4 production in fresh human whole blood obtained by venapuncture using heparin to prevent clotting. 1.5 μL compounds or DMSO carrier were dispensed into the wells of a 96-well deep-well plate in 3-fold dilution series. 500 μL hepamised whole blood was then added followed by incubation at 37° C. for 30 min (method A) or 4 h (method B). 100 μL blood was subsequently transferred in triplicate to pre-dispensed 0.5 μL 2 mM calcium ionophore (calcimycin; A23187) in a second 96-well plate. Following incubation at 37° C. for 20 min, the assays were stopped by adding 10 μL of stop solution (100 mM EGTA, pH 7.4) and the plate was transferred to ice. The plate was centrifuged at 3000 rpm at 4° C. for 10 min and […] was transferred to a fresh 96 well plate containing 90 μL pre-dispensed EIA assay buffer (0.1 M phosphate buffer+0.1% BSA). LTB4 was then measured using reagents from a commercial EIA (Cayman Chemicals). LTB4 production was defined as the LTB4 level in the presence of a given concentration of test compound minus the LTB4 level in the presence of 50 nM 5-[[4-[(2S,4R)-4-hydroxy-2-methyl-tetrahydropyran-4-yl]-2-thienyl]sulfanyl]-1-methyl-indolin-2-one. (Preparation of 5-[[4-[(2S,4R)-4-hydroxy-2-methyl-tetrahydropyran-4-yl]-2-thienyl]sulfanyl]-1-methyl-indolin-2-one was described in Org. Process Res. Dev., 2005, 9, 555-569 or EP623614 B1). Inhibition of LTB4 production was defined as the LTB4 level in the presence of a given concentration of test compound expressed as a % of the LTB4 level in the presence of DMSO. IC50 values were determined by plotting % inhibition versus log compound concentration and using a one site dose response model.

[3] = method B: compound incubated with human whole blood at 37° C. for 4 h, read-out: IC50 nM (method B)
[4] = 0.5 h, method A: compound incubated with human whole blood at 37° C. for 30 min, read-out: IC50 nM (method A)

Sequence of FLAP (human ALOX5AP expressed in COS-7 cell membranes) (P20292 whole entry): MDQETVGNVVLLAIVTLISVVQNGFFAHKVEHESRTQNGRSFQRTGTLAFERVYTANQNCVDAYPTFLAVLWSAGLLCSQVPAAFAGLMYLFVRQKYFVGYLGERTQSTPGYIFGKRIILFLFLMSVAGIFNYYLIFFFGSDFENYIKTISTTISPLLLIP

| pIC50 [1] | IC50 [2, 3] [nM] | IC50 [2, 4] [nM] | Structure (SMILES) |
| --- | --- | --- | --- |
| 8.07 | 28 |  | Cc1cc(-c2ccc(C(=O)[C@@H]3CCCC[C@H]3C(=O)Nc3cn[nH]c3C(F)F)cc2)n[nH]1 [Example 15, (1R,2R)—N-[5-(Difluoromethyl)-1H-pyrazol-4-yl]-2-[4-(5-methyl-1H-pyrazol-3-yl)benzoyl]cyclohexanecarboxamide] |
| 7.07 |  | 170 | Cc1cc(-c2ccc(C(=O)C3CCCCC3C(=O)Nc3cnn(C)c3C#N)cc2)[nH]n1 (racemic) [Example 46, (1R,2R and 1S,2S)—N-(5-Cyano-1-methyl-1H-pyrazol-4-yl)-2-[4-(3-methyl-1H-pyrazol-5-yl)benzoyl]cyclohexanecarboxamide] |
| 6.40 |  | 654 | COc1c(NC(=O)C2CCCCC2C(=O)c2ccc(-c3cc[nH]n3)cc2)cnn1C (racemic) [Example 14, (1R,2R and 1S,2S)—N-(5-Methoxy-1-methyl-1H-pyrazol-4-yl)-2-[4-(1H-pyrazol-3-yl)benzoyl]cyclohexanecarboxamide] |
| 7.92 | 50 |  | O=C(Nc1cn[nH]c1C(F)F)[C@@H]1CCCC[C@H]1C(=O)c1ccc(-c2cc[nH]n2)cc1 [Example 30, (1R,2R)—N-[5-(Difluoromethyl)-1H-pyrazol-4-yl]-2-[4-(1H-pyrazol-3-yl)benzoyl]cyclohexanecarboxamide] |
| 7.55 | 114 |  | Cn1ncc(NC(=O)C2CCCCC2C(=O)c2ccc(-c3cc[nH]n3)cc2)c1C#N (single isomer, unassigned) [Example 18b, (1S,2S or 1R,2R)—N-(5-Cyano-1-methyl-1H-pyrazol-4-yl)-2-[4-(1H-pyrazol-3-yl)benzoyl]cyclohexanecarboxamide] |
| 7.14 |  | 112 | Cn1cc(NC(=O)C2CCCCC2C(=O)c2ccc(-c3cc[nH]n3)cc2)c(C(N)=O)n1 (single isomer, unassigned) [Example 1, 1-Methyl-4-[({(1R,2R or 1S,2S)-2-[4-(1H-pyrazol-3-yl)benzoyl]-cyclohexyl}carbonyl)amino]-1H-pyrazole-3-carboxamide] |

More lines, now with the values behind:

| Structure (SMILES) | pIC50 [1] | IC50 [2, 3] [nM] | IC50 [2, 4] [nM] |
| --- | --- | --- | --- |
| Cn1ncc(NC(=O)C2CCCCC2C(=O)c2ccc(-c3ccn[nH]3)cc2Cl)c1C(N)=O (racemic) [Example 31, 4-[({(1R,2R and 1S,2S)-2-[2-Chloro-4-(1H-pyrazol-5-yl)benzoyl]-cyclohexyl}carbonyl)amino]-1-methyl-1H-pyrazole-5-carboxamide] | 6.72 | 390 |  |
| Cc1cc(-c2ccc(C(=O)[C@@H]3CCCC[C@H]3C(=O)Nc3cnn4c3OCC4)cc2)[nH]n1 [Example 11, (1R,2R)—N-(2,3-Dihydropyrazolo[5,1-b][1,3]oxazol-7-yl)-2-[4-(3-methyl-1H-pyrazol-5-yl)benzoyl]cyclohexanecarboxamide] | 7.09 | 140 |  |
| NC(=O)c1[nH]ncc1NC(=O)[C@@H]1CCCC[C@H]1C(=O)c1ccc(-c2ccn[nH]2)cc1 [Example 23, 4-[({(1R,2R)-2-[4-(1H-Pyrazol-5-yl)benzoyl]cyclohexyl}carbonyl)amino]-1H-pyrazole-5-carboxamide] | 7.46 | 130 |  |
| Cc1cc(-c2ccc(C(=O)C3CCCCC3C(=O)Nc3cnn(C)c3C(N)=O)c(Cl)c2)[nH]n1 (racemic) [Example 32, 4-[({(1R,2R and 1S,2S)-2-[2-Chloro-4-(3-methyl-1H-pyrazol-5-yl)benzoyl]cyclohexyl}carbonyl)amino]-1-methyl-1H-pyrazole-5-carboxamide] | 6.77 | 915 |  |
| Cc1cc(-c2ccc(C(=O)[C@@H]3CCCC[C@H]3C(=O)Nc3cn[nH]c3)cc2)[nH]n1 [Example 6, (1R,2R)-2-[4-(3-Methyl-1H-pyrazol-5-yl)benzoyl]-N-(1H-pyrazol-4-yl)cyclohexanecarboxamide] | 7.24 | 380 |  |
| Cc1cc(-c2ccc(C(=O)[C@@H]3CCCC[C@H]3C(=O)Nc3c(C)nn4c3C(=O)NCC4)cc2)n[nH]1 [Example 28, (1R,2R)—N-(2-Methyl-4-oxo-4,5,6,7-tetrahydropyrazolo[1,5-a]pyrazin-3-yl)-2-[4-(5-methyl-1H-pyrazol-3-yl)benzoyl]cyclohexanecarboxamide] | 8.41 | 380 |  |
| CCn1cc(NC(=O)C2CCCCC2C(=O)c2ccc(-c3ccn[nH]3)cc2)c(C(N)=O)n1 (racemic) [Example 42, 1-Ethyl-4-[({(1R,2R and 1S,2S)-2-[4-(1H-pyrazol-5-yl)benzoyl]-cyclohexyl}carbonyl)amino]-1H-pyrazole-3-carboxamide] | 6.70 |  | 149 |
| Cn1cc(NC(=O)C2CCCCC2C(=O)c2ccc(-c3ccn[nH]3)cc2F)c(C(N)=O)n1 (single isomer, unassigned) [Example 35, 4-[({(1R,2R or 1S,2S)-2-[2-Fluoro-4-(1H-pyrazol-5-yl)benzoyl]-cyclohexyl}carbonyl)amino]-1-methyl-1H-pyrazole-3-carboxamide] | 7.08 | 79 |  |
| O=C1NCCn2ncc(NC(=O)[C@@H]3CCCC[C@H]3C(=O)c3ccc(-c4ccn[nH]4)cc3)c21 [Example 24, (1R,2R)—N-(4-Oxo-4,5,6,7-tetrahydropyrazolo[1,5-a]pyrazin-3-yl)-2-[4-(1H-pyrazol-5-yl)benzoyl]cyclohexanecarboxamide] | 8.09 | 18 |  |
| Cc1cc(-c2ccc(C(=O)C3CCCCC3C(=O)Nc3cnn(C)c3C(N)=O)c(F)c2)[nH]n1 (single isomer, unassigned) [Example 37, 4-[({(1R,2R or 1S,2S)-2-[2-Fluoro-4-(3-methyl-1H-pyrazol-5-yl)benzoyl]-cyclohexyl}carbonyl)amino]-1-methyl-1H-pyrazole-5-carboxamide] | 7.57 | 40 |  |
